# Source: US11001558B2, “Asymmetric bisaminoquinolines and bisaminoquinolines with varied linkers as autophagy inhibitors for cancer and other therapy” (THE TRUSTEES OF THE UNIVERSITY OF PENNSYLVANIA, priority 2014, dated 2021)
# What was measured:
# [1] = tested on: autophagy; details: cited from earlier work
# [2] = tested on: A375P mCherry eGFP-LC3 cells grown into 3 dimensional spheroids; assay: 3D spheroid growth and invasion in collagen; type: cell-based; details: 3 uM, 72 hours
# Protocol: A375P mCherry eGFP-LC3 cells grown into 3 dimensional spheroids and implanted in collagen. After 72 hours of treatment with 3 uM of indicated compound, cells were counterstained with DAPI. (A) fluorescence microscopy was used to visualize autophagy inhibition (bright areas), inhibition of invasion into the collagen and (B) quantification of the DAPI fluorescence indicative of cell death. *p<0.05
# The 3D spheroid model has been used extensively to mimic the tumor microenvironment (Ma et al Clin Can Research 2011). Autophagy levels are more reflective of in vivo autophagy dynamics in the 3D models compared to traditional two dimensional cell culture. In this format cancer cells are grown as spheroids and then implanted in a collagen matrix. The spheroids then begin to invade and grow within this tissue microenvironment.
# [3] = tested on: A375 cells; assay: Flow cytometry quantification of reactive oxygen species (DHR_123 fluorescence); details: 1 uM compound, 24 hours
# [4] = tested on: A375 cells; assay: Apoptosis by annexin V detection; details: for apoptosis (annexin V): 1 uM compound, 24 hour timepoint
# Protocol: (C) Apoptosis reflected by annexin V detection in A375 cells treated with 1 uM compound at the 24 hours. (D) Apoptosis reflected by annexin V detection in A375 cells treated with indicated compounds at 3 uM for 24 or 48 hours.
# [5] = tested on: melanoma cell lines; assay: LC3B and actin immunoblotting (LC3II/actin quantification); details: 1 uM, 24 hours, 3 melanoma cell lines, compared with Lys05
# Protocol: Each compound was administered at 1 uM concentrations for 24 hours.
# As an initial method of determining the effects of the longer linker compounds on autophagic vesicle accumulation, a series of most cytotoxic dimeric CQ's were used to treat 3 different cell lines (1 uM, 24 hours). Cell lysates were collected and immunoblotting against LC3 and actin as performed (FIG. 4).
# [6] = tested on: A375P mCherry-eGFP-LC3 cells; assay: Flow cytometry green/red ratio, inhibition of autophagic flux; type: cell-based; details: for inhibition of autophagic flux (green/red ratio): 1 uM compound, 24 hours
# Excerpt: PLX: PLX4720; TRA: trametinib.
# [7] = tested on: A375P melanoma cells; assay: 72 hour alamar blue viability assay; type: cell-based; details: spermine or spermidine linker compared with Lys01
# Protocol: […]. A375 P cells seeded in a 384 well format were treated with a 10 point dilution of concentrations (0.01 nM-10 uM) (B) Colony formation assay in soft agar. Cells from the indicated melanoma (A375, WM983B, SKMEL5) and pancreatic cancer (PANC1, CAPAN1) cell lines were plated in soft agar. Medium with compound was changed every 48 hours. Crystal violet staining was used to visualize formed colonies after 2 weeks.
# A375P melanoma cells were plated in a 384 well format and treated with increasing concentrations of […] derivatives. After 72 hours the cells were analyzed by alamar blue. Complete data is in Table 1, FIG. 10. (A) IC50 according to symmetry of linker (B) IC50 by linker length.
# […]. After 72 hours incubation at 37 degrees, Alamar blue was applied and viability was determined using absorbance. Absorbance was normalized to DMSO control, and a log IC50 was estimated using Graphpad Prism software.
# . After 72 hours incubation at 37 degrees, Alamar blue was applied and viability was determined using absorbance. Absorbance was normalized to DMSO control, and a log IC50 was estimated using Graphpad Prism software (FIG. 11, Table 1). LN229 cells produced similar data (data not shown). The increased cytotoxicity of longer linker and asymmetric compounds was confirmed in a 2 week colony formation assay using 5 different cell lines (FIG. 1B). Analysis of the cytotoxicity findings alone elucidated some key features of potential structure activity relationships. First, substitution of the central nitrogen substitution beyond methyl reduces activity. Second, there was no clear advantage of assymetric versus symmetric linkers (FIG. 2A) with regards to cytotoxicity alone. […]
SMILES,ROS (DHR_123 fluorescence) [3],apoptosis (annexin V) [4],inhibition of autophagic flux (green/red ratio) [6],potency on replacement of the Lys01 linker with longer linkers [7],further results
"CCN(CCO)CCCC(C)Nc1ccnc2cc(Cl)ccc12 (centres unmarked) [HCQ, hydroxychloroquine]",–,–,–,–,concentrations required to inhibit autophagy [1]: High micromolar concentrations
CN(CCCCCCNc1ccnc2cc(Cl)ccc12)CCCCCCNc1ccnc2cc(Cl)ccc12.Cl [Lys75],highest levels of ROS,most apoptosis,most effective at inhibiting autophagic flux,–,inhibition of growth and invasion of 3D spheroids [2]: most potent compound at inhibiting growth and invasion; LC3II/actin [5]: most consistent and substantial increase
CN(CCCCNc1ccnc2cc(Cl)ccc12)CCCNc1ccnc2cc(Cl)ccc12 [Lys26],highest levels of ROS,–,–,significant increases in potency,–
CN(CCCCN(C)CCCNc1ccnc2cc(Cl)ccc12)CCCNc1ccnc2cc(Cl)ccc12 [Lys 25],–,–,–,significant increases in potency,–
Clc1ccc2c(NCCCCNCCCNc3ccnc4cc(Cl)ccc34)ccnc2c1 [Lys21],–,most apoptosis,most effective at inhibiting autophagic flux,significant increases in potency,ability to induce apoptosis compared to comparable symmetric compounds [4]: superior; autophagy inhibition compared to comparable symmetric compounds [6]: superior autophagy inhibition
